Data published in article PMC9969396, “Development of Human Carbonic Anhydrase II Heterobifunctional Degraders” (Journal of Medicinal Chemistry, 2023).

Biological target: T1, hCAII (Homo sapiens, UniProt P00918+Q96SW2)
T1 construct: HEK293 cells, a line known to abundantly express hCAII; endogenous in cells; host or cells: HEK293
Test: nine-point dose response hCAII degradation assay in HEK293 cells, western blot
Type: cell-based
Conditions: 24 h; for Dmax: HEK293, HEK293 cells, read-out: DMax (maximum percentage of degradation); for hook effect (attenuation of target degradation at high concentration): doses up to 15 μM
Protocol: Three biological replicates of HEK293 cells were dosed in parallel with 4 or 5 at concentrations ranging from 5 pM to 15 μM for 24 h prior to lysis. […] This phenomenon can be attributed to the binary complexes of degrader-POI and degrader-E3 ligase outcompeting the POI-degrader-E3 ligase ternary complex at high degrader concentrations. […] The half-maximal degradation (DC50 value reported as a 95% confidence interval) and maximum percentage of degradation (DMax) of each active degrader were determined using a least squares sigmoidal fitting of the degradation activity of dosing concentrations below the observable “hook effect” (Figure 2B).
Figure 3 Dose-dependent degradation of hCAII by 4 and 5. (A) Western blot images of HEK293 cells dosed for 24 h with degrader 4 (left) or 5 (right) at concentrations of 5 pM to 15 μM. (B) Dose response curves of hCAII abundance as a percent of DMSO vehicle for 4 (left) or 5 (right). Band intensities of blots from three biological replicates were quantified using ImageJ software (Experimental Section). Data were normalized to a vehicle-treated (DMSO) group and plotted as a sigmoidal curve. Nonlinear fitting of log([inhibitor]) vs response (three parameters) was generated for 4 with R^2 = 0.955 and 5 with R^2 = 0.855 in GraphPad Prism. Points marked with an asterisk indicate only two biological replicates. In all other cases, error bars represent the standard deviation of triplicate experiments. Full images of the western blots are provided in the Supporting Information (Figures S1 and S3).
Given the inactivity of 1–3 and increased potency of 4 over 5, a 12-atom linker appeared to be a preferred length for favorable ternary complex formation in the heterobifunctional degraders tested. To further examine the role of linker length and composition, we explored hydrocarbon linkers for their ability to improve degrader lipophilicity and membrane permeability without impacting the favorable ternary complex formation. […] Western blot analysis and quantification of three biological replicates identified the degradation of hCAII at concentrations of 11 as low as 50 pM and achieved near-complete hCAII degradation at concentrations of 5 nM (Figures 5A and S3).
After reaching 90% confluency, HEK293 cells were trypsinized, counted, and plated with 2 mL media at 2 × 10^6 cells per well on a tissue-culture-treated, 6-well plate. At the appropriate number of hours before reaching ∼90% confluency, cells were treated with DMSO solutions of the appropriate compounds (final concentration 0.5% DMSO per well). Upon reaching 90% confluency, typically 72 h, culture media were removed and the cells were washed with cold Dulbecco’s phosphate-buffered saline (DPBS). Lysis buffer, composed of cell lysis buffer (Cell Signaling Technology, 9803), protease inhibitor cocktail (Cell Signaling Technology, 5872), and 1 mM phenylmethylsulfonylfluoride, was added to each well, and the plates were rocked at 4 °C for 20 min. Cells were then scraped from the bottom of the plates, and the supernatant was collected after spinning down at 14,000g at 4 °C for 10 min and frozen at −80 °C. Lysates were thawed on ice, and the total protein concentration was measured using a Pierce bicinchoninic acid protein assay (Thermo Fisher Scientific, 23225). […] Following heating at 98 °C for 5 min and cooling to room temperature, the prepared samples were electrophoretically separated on a 4–20% TGX gel (Bio-Rad, 4568095) and transferred to a PVDF membrane (Amersham Hybond P 0.45 μm, 106000019) in a tris-glycine transfer buffer (Thermo Fisher Scientific, LC3675) with a 20% final MeOH concentration. The membrane was rocked at 4 °C with fluorescent blocking buffer (Thermo Fisher Scientific, 37565) for 1 h and then incubated with primary antibodies (hCAII Rabbit mAb, 1:1000 and β-actin Rabbit pAb, 1:2000 in fluorescent blocking buffer) at 4 °C overnight. […]

DMax (maximum percentage of degradation) (HEK293 cells) [%]	SMILES	Dmax [%]	concentration of maximum degradation (HEK293 cells) [nM]	DC50 (HEK293 cells, 5 pM to 15 μM, 95% confidence interval, read-out: DC50 (half-maximal degradation)) [nM]	hook effect (attenuation of target degradation at high concentration) (HEK293 cells)
	NS(=O)(=O)c1ccc(C(=O)NCCCOCCCCOCCCNc2cccc3c2C(=O)N(C2CCC(=O)NC2=O)C3=O)cc1 (centres unmarked) [Compound 4, N-(3-(4-(3-((2-(2,6-Dioxopiperidin-3-yl)-1,3-dioxoisoindolin-4-yl)amino)propoxy)butoxy)propyl)-4-sulfamoylbenzamide]	96	500	5 ± 3	hook effect
96	NS(=O)(=O)c1ccc(C(=O)NCCCOCCOCCOCCCNc2cccc3c2C(=O)N(C2CCC(=O)NC2=O)C3=O)cc1 (centres unmarked) [Compound 5, N-(3-(2-(2-(3-((2-(2,6-Dioxopiperidin-3-yl)-1,3-dioxoisoindolin-4-yl)amino)propoxy)ethoxy)ethoxy)propyl)-4-sulfamoylbenzamide]	86	5000		hook effect
